Test [1] deals with recombinant human DAAO protein (Homo sapiens (Human), UniProt P14920). Kind of test: DAAO inhibitory activity test (H2O2 production, Amplex red/HRP fluorescence). Type of test: biochemical. The following applies: recombinant human DAAO 15 nM, D-alanine substrate, FAD, pH 7.5. The procedure: The DAAO inhibitory activity was measured by assaying the amount of hydrogen peroxide (H2O2) produced by reacting DAAO protein with flavin adenine dinucleotide (FAD) and D-alanine. The amount of H2O2 was determined by measuring the fluorescence generated on conversion of Amplex red (manufactured by Invitrogen Co.) into resorufin by the reaction of H2O2 with horseradish peroxidase (HRP).
Escherichia coli strain BL21(DE3) (manufactured by Novagen) was transformed with the constructed human DAAO expression vector, inoculated into LB culture medium containing kanamycin at a final concentration of 20 μg/mL, and shake-cultured at 37° C. overnight. The multiplied transformant was inoculated into Terrific Broth containing kanamycin at a final concentration of 20 μg/mL, and shake-cultured at 37° C. until it reached OD600=3.0. Thereafter, the culture was cooled to 30° C., and expression was induced with 1 mM IPTG. After 20 hours, bacterial pellets were recovered by centrifugation.
The bacterial pellets recovered as above were suspended in a lysis buffer (17 mM sodium pyrophosphate buffer pH 8.3, 100 μM FAD, 1 mM sodium benzoate, 1 mM PMSF, 14 mM β-mercaptoethanol, 0.2 mg/mL lysozyme) and the bacteria were fractured by sonication. The sonicated liquid was centrifuged and the supernatant was recovered. To remove the nucleic acid, to this supernatant were sequentially added NaCl (final concentration 0.5M) and 0.05% ethyleneimine (polymer) and, after thorough mixing, the supernatant was recovered by centrifugation. The supernatant was heat treated at 55° C. for 15 min, and the supernatant was recovered by centrifugation. To this supernatant was added 40% saturated ammonium sulfate and, after thorough mixing, the salt precipitate was recovered by centrifugation. The obtained salt precipitate was redissolved in buffer A (50 mM potassium phosphate buffer pH 7.4, 10% glycerol, 200 μM sodium benzoate, 10 μM FAD, 20% saturated ammonium sulfate), and filtered through a 0.22 μm filter (manufactured by Millipore). The obtained filtrate was applied to a hydrophobic interaction column Butyl-S Sepharose 6 Fast Flow (manufactured by GE Healthcare Life Sciences) and eluted with buffer B (10 mM Tris buffer solution pH 8.0, 200 μM sodium benzoate, 10% glycerol, 10 μM FAD). The eluent was applied to an anion-exchange column, Q Sepharose Fast Flow (manufactured by GE Healthcare Life Sciences) and eluted using an NaCl concentration gradient. The eluate was replaced with buffer B (sic) using Amicon Ultra-15 10 kDa (manufactured by Millipore), and thereafter applied to an anion-exchange column, RESOURCE Q 6 mL (manufactured by GE Healthcare Life Sciences), and eluted with an NaCl concentration gradient. The eluate was concentrated using Amicon Ultra-15 10 kDa, thereafter applied to a HiLoad 26/600 Superdex 200 pg (manufactured by GE Healthcare Life Sciences) gel filtration column equilibrated with buffer C (10 mM potassium phosphate buffer pH 7.4, 0.5M NaCl, 400 μM sodium benzoate, 20 μM FAD), and the DAAO protein dimer fraction was recovered. The recovered DAAO protein was replaced (sic) with buffer D (10 mM trisodium citrate, 20 μM FAD, 400 μM sodium benzoate) using Amicon Ultra-15 10 kDa, concentrated to 10 mg/mL and cryopreserved at −80° C.

In test [2] the target is HEK293 cells that stably express human DAAO (Homo sapiens (Human), UniProt P14920). Kind of test: Inhibitory activity test at cellular level using DAAO-expressing cells. The test is classed as cell-based. The following applies: D-alanine substrate. The procedure: HEK293 cells that stably express human DAAO were suspended in Cellbanker solution at 5×10^6 cells/ml and cryopreserved at −80° C. At the time of measurement, the cells were centrifuged at 1000 rpm for one min and the Cellbanker solution was removed. […] A 4% DMSO buffer solution (50 mM sodium phosphate [pH 7.5], 0.02% CHAPS) of the test compound (4 μL) was added to a 384-well black, low volume plate, the cell suspension (4 μL) was added, and the mixture was incubated at room temperature for 15 min.
Reverse transcription was performed on human normal kidney tissue-derived RNA (Clontech Corp.) using reverse transcriptase (SuperScriptIII, Life Technologies Corporation) and oligo (dT) primer (Life Technologies Corporation) according to the protocol of the kit (Life Technologies Corporation) and cDNA was synthesized. Then, using human DAAO_HindIII_F represented by Sequence No. 1 and human DAAO_BamHI_R represented by Sequence No. 2, a PCR reaction (35 cycles of 98° C. for 15 sec, 55° C. for 15 sec and 68° C. for 1 min 30 sec) was performed using DNA polymerase (PrimeSTAR, TAKARA BIO INC.) and cDNA obtained as above as a template. […] The PCR product was cloned in a cloning vector (pCR2.1-TOPO Cloning Kit, Life Technologies Corporation). The sequence of the insert was determined by the dideoxy sequence method (BigDye Terminator v3.1 Cycle Sequencing Kit; Life Technologies Corporation).
To express the ORF full length of DAAO as a protein, the above-mentioned vector was subjected to an enzyme reaction with restriction enzymes HindIII and BamHI at 37° C. for 3 hr, and the restriction enzyme-treated DNA fragment was purified. The DNA fragment containing the ORF was cloned to HindIII and BamHI sites present in the multiple cloning site of the expression vector (pcDNA3.1(+): Invitrogen Co.), whereby an expression plasmid (hDAAO/pcDNA3.1) was constructed.
Then, HEK293 cells were transfected to obtain the forced expression cell line. The cells were spread on a collagen-coated 24-well plate (Corning) to contain 1.0×10^5 cells per well on the day before transfection and, using Lipofectamine 2000 (Invitrogen) and hDAAO/pcDNA3.1, transfected according to the protocol. Thereafter, subculture was performed several times using 800 μg/mL geneticin, whereby a drug resistant cell line was obtained.
To confirm acquisition of the human DAAO expression cell line, the cells were spread on a collagen-coated 384-well black, clear bottom plate to 2.5×10^4 per well, and the cells were cultured at 37° C. in the presence of 5% CO2 for 24 hr. After culturing, the culture supernatant was removed, and a solution containing flavin adenine dinucleotide was added to Hanks-20 mM Hepes (pH 7.4) buffer to 5.5 μg/mL, added by 20 μL per well to the wells from which the supernatant had been removed, and the mixture was allowed to react at 37° C. in the presence of 5% CO2 for 1 hr.

As usually defined, the IC50 is the midpoint of a concentration-inhibition curve. `O=c1[nH]cc(CCC2CCCCC2)cc1O` [Example 58]: in test [1], the IC50 was determined as 44 nM.
Take `O=c1[nH]nc(CCc2ccc(-c3ccccc3)cc2)cc1O` [Example 15]: the figures for the IC50 in test [1] and in test [2] were 1.2 nM and 16 nM, respectively.
For `Cc1ccccc1CCc1cc(O)c(=O)[nH]n1` [Example 22] the same measures were 3.3 nM and 8.4 nM.
For `Cc1cccc(CCc2cc(O)c(=O)[nH]n2)c1` [Example 20] the same measures were 2.5 nM and 4.6 nM.
For `O=c1[nH]nc(CCc2ccc(F)cc2F)cc1O` [Example 21] the same measures were 2.2 nM and 5.5 nM.
In the case of `CCCCc1cc(O)c(=O)[nH]n1` [Example 29], the IC50 in test [1] came out at 6.9 nM; in test [2], 13 nM.
For `O=c1[nH]nc(CCc2ccc(OC(F)(F)F)cc2)cc1O` [Example 28] the same measures were 8.1 nM and 18 nM.
In the same order, the values of `CC(C)(C)c1ccc(CCc2cc(O)c(=O)[nH]n2)cc1` [Example 25] are 6.6 nM and 18 nM.
For `O=c1[nH]nc(CCc2cccc3ccccc23)cc1O` [Example 56] the same measures were 2.3 nM and 8.8 nM.
With `Cc1ccc(CCc2cc(O)c(=O)[nH]n2)cc1` [Example 13], the IC50 in test [1] worked out at 6.1 nM; in test [2], 14 nM.
Regarding `COCCCc1cc(O)c(=O)[nH]n1` [Example 26], the IC50 in test [1] is 8.1 nM.
Regarding `O=c1cc(COc2cccc(F)c2)[nH]nc1O` [Example 232], the 50% inhibitory concentration (IC50) was 2.3 nM in test [1] and 13 nM in test [2].
As for `Cc1cc(C)cc(CCc2cc(O)c(=O)[nH]n2)c1` [Example 40], the values for the IC50 in test [1] and in test [2] were 4.7 nM and 9.8 nM, respectively.
In the same order, the values of `COc1ccc(SCc2cc(=O)c(O)n[nH]2)cc1` [Example 47] are 5.2 nM and 12 nM.
In the same order, the values of `O=c1cc(COc2ccc(F)cc2)[nH]nc1O` [Example 231] are 2.9 nM and 13 nM.
In the same order, the values of `O=c1[nH]nc(CCCCc2ccccc2)cc1O` [Example 52] are 2.5 nM and 11 nM.

(Values after patent US9212147B2, “Dihydroxy aromatic heterocyclic compound” (TAKEDA PHARMACEUTICAL COMPANY LIMITED, priority 2011, dated 2015).)
